Measurements published in patent US10975056B2 (GlaxoSmithKline Intellectual Property Development Limited, priority 2016, dated 2021).

How the values were obtained:
DNMT1 = DNMT1 (Homo sapiens, UniProt P26358); test: DNMT1 biochemical activity, breaklight assay and/or SPA assay; conditions: for DNMT1 BioChemical (pIC50 category): binned activity in either the breaklight or the SPA assay
[1] = test system: erythroid progenitor cells (EPCs); test: Fetal hemoglobin (HbF) ELISA in day 7 erythroid progenitor cells; assay type: cell-based, human; conditions: Homo sapiens, Erythroid progenitor cell, HbF ELISA, day 7 EPCs, 5 days; read-out: EPC ELISA (pEC50 category) (converted);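 also: for fetal hemoglobin induction normalized to vehicle-treated cells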
In short: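 Day 7 EPCs from human bone marrow CD34+ cells were plated at 1,000 cells/well in media with 3 U/mL rhEPO. They were exposed to a 22-point dilution ([…]) for 5 days at 37 °C. Lysate HbF was measured by sandwich ELISA (OD450) and normalized to DMSO control wells.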

Sequence of DNMT1 (P26358 whole entry, looked up): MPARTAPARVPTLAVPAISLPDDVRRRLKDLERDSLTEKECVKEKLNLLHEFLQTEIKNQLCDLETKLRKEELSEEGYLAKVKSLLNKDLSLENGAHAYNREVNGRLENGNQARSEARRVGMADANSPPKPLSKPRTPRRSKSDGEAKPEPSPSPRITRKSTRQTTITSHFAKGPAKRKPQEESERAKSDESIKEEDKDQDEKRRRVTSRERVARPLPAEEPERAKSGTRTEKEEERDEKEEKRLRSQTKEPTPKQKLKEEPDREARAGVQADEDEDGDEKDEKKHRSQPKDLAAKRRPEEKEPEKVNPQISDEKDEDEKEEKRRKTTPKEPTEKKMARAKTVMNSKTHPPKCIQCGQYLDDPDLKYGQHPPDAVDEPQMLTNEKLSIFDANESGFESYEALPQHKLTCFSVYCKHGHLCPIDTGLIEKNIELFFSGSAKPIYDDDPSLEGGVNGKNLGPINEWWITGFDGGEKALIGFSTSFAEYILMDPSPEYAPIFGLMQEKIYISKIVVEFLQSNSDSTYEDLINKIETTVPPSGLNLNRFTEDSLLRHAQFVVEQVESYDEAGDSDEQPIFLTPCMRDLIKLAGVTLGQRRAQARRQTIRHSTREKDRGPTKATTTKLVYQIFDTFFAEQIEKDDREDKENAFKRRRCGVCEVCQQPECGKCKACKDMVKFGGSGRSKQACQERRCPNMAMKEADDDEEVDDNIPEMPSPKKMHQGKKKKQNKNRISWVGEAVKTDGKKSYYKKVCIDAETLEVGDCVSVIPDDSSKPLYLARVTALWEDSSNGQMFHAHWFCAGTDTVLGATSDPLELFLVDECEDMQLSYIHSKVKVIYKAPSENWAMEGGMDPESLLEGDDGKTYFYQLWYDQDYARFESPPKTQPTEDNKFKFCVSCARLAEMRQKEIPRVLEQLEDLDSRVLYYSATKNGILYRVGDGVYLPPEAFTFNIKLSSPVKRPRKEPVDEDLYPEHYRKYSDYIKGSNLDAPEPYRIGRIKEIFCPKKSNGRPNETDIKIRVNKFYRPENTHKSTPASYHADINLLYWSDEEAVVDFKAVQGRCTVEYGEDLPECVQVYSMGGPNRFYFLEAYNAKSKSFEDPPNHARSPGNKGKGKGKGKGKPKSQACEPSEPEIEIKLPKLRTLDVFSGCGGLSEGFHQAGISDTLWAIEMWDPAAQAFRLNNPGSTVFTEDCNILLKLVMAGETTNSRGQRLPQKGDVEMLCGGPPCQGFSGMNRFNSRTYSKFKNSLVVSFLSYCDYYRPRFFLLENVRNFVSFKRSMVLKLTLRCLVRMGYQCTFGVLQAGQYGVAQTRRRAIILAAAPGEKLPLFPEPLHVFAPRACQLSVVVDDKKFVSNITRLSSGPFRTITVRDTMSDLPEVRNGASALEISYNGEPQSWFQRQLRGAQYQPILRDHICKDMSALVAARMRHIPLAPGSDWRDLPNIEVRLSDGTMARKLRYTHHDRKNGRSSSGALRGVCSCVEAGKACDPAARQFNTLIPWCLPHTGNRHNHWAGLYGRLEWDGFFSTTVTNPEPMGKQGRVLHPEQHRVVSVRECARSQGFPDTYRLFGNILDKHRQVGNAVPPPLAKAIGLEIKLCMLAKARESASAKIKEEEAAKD

Structure (SMILES) | DNMT1 BioChemical (pIC50 category) (DNMT1) | EC50 [1] | average pIC50 against DNMT1 (DNMT1; breaklight assay and/or SPA assay, repeated experimental runs) | IC50 (DNMT1; breaklight assay and/or SPA assay, repeated experimental runs, read-out: average pIC50 against DNMT1 (converted))
CCc1c(C#N)c(SC(C(N)=O)c2ccccc2)nc(N2CCC(NCc3ccc(OC)nc3)CC2)c1C#N (stereo not drawn) [Example 467, 2-((3,5-dicyano-4-ethyl-6-(4-(((6-methoxypyridin-3-yl)methyl)amino)piperidin-1-yl)pyridin-2-yl)thio)-2-phenylacetamide] | D (Category D: ≥6.5) | < 316 nM |  | 
CCc1c(C#N)c(SC(C(N)=O)c2ccccc2)nc(N2CCC(CN3CCN(C)CC3)CC2)c1C#N (stereo not drawn) [Example 469, 2-((3,5-dicyano-4-ethyl-6-(4-((4-methylpiperazin-1-yl)methyl)piperidin-1-yl)pyridin-2-yl)thio)-2-phenylacetamide] | D (Category D: ≥6.5) | < 316 nM |  | 
CCc1c(C#N)c(SCc2ccc(N(C)S(C)(=O)=O)cc2)nc(N(C)CCNC)c1C#N [Example 471, N-(4-(((3,5-dicyano-4-ethyl-6-(methyl(2-(methylamino)ethyl)amino)pyridin-2-yl)thio)methyl)phenyl)-N-methylmethanesulfonamide] | D (Category D: ≥6.5) | < 316 nM |  | 
CCc1c(C#N)c(SC(C(N)=O)c2ccccc2)nc(N2CCC(NCc3ccc(F)cc3)CC2)c1C#N (stereo not drawn) [Example 474, 2-((3,5-dicyano-4-ethyl-6-(4-((4-fluorobenzyl)amino)piperidin-1-yl)pyridin-2-yl)thio)-2-phenylacetamide] | D (Category D: ≥6.5) | < 316 nM |  | 
CCc1c(C#N)c(SCc2ccc(N(C)S(C)(=O)=O)cc2)nc(N(C)CCNCCOC)c1C#N [Example 480] | D (Category D: ≥6.5) | 316 to 1000 nM |  | 
CCc1c(C#N)c(SCc2ccc(N(C)S(C)(=O)=O)cc2)nc(N(C)CCNC2(C)CC2)c1C#N [Example 481, N-(4-(((3,5-dicyano-4-ethyl-6-(methyl(2-((1-methylcyclopropyl)amino)ethyl)amino)pyridin-2-yl)thio)methyl)phenyl)-N-methylmethanesulfonamide] | D (Category D: ≥6.5) | < 316 nM |  | 
CCc1c(C#N)c(SCc2ccc(N(C)S(C)(=O)=O)cc2)nc(N(C)CCN(C)C)c1C#N [Example 482, N-(4-(((3,5-dicyano-6-((2-(dimethylamino)ethyl)(methyl)amino)-4-ethylpyridin-2-yl)thio)methyl)phenyl)-N-methylmethanesulfonamide] | D (Category D: ≥6.5) | < 316 nM |  | 
CCc1c(C#N)c(SC(C(N)=O)c2ccccc2)nc(N(C)CCN(C)CC)c1C#N (stereo not drawn) [Example 483, 2-(3,5-dicyano-4-ethyl-6-((2-(ethyl(methyl)amino)ethyl)(methyl)amino)pyridin-2-ylthio)-2-phenylacetamide] | D (Category D: ≥6.5) | < 316 nM |  | 
CCc1c(C#N)c(SCc2ccc(N(C)S(C)(=O)=O)cc2)nc(N(C)CCN)c1C#N [Example 484, N-(4-(((6-((2-aminoethyl)(methyl)amino)-3,5-dicyano-4-ethylpyridin-2-yl)thio)methyl)phenyl)-N-methylmethanesulfonamide] | D (Category D: ≥6.5) | < 316 nM |  | 
CCc1c(C#N)c(SC(C(N)=O)c2ccccc2)nc(N2CCC(NC(C)(C)C(=O)OC)CC2)c1C#N (stereo not drawn) [Example 487, methyl 2-((1-(6-((2-amino-2-oxo-1-phenylethyl)thio)-3,5-dicyano-4-ethylpyridin-2-yl)piperidin-4-yl)amino)-2-methylpropanoate] | D (Category D: ≥6.5) | < 316 nM |  | 

Further lines, results first:

DNMT1 BioChemical (pIC50 category) (DNMT1) | EC50 [1] | average pIC50 against DNMT1 (DNMT1; breaklight assay and/or SPA assay, repeated experimental runs) | IC50 (DNMT1; breaklight assay and/or SPA assay, repeated experimental runs, read-out: average pIC50 against DNMT1 (converted)) | Structure (SMILES)
D (Category D: ≥6.5) | < 316 nM |  |  | CCc1c(C#N)c(SC(C(N)=O)c2ccccc2)nc(N(C)CCN2CCC[C@@H]2C)c1C#N (stereo partly drawn) [Example 463, 2-((3,5-dicyano-4-ethyl-6-(methyl(2-((S)-2-methylpyrrolidin-1-yl)ethyl)amino)pyridin-2-yl)thio)-2-phenylacetamide]
D (Category D: ≥6.5) | < 316 nM |  |  | CCNCCN(C)c1nc(SC(C(N)=O)c2ccccc2)c(C#N)c(CC)c1C#N (stereo not drawn) [Example 468, 2-(3,5-dicyano-4-ethyl-6-((2-(ethylamino)ethyl)(methyl)amino)pyridin-2-ylthio)-2-phenylacetamide]
D (Category D: ≥6.5) | < 316 nM |  |  | CCc1c(C#N)c(SC(C(N)=O)c2ccccc2)nc(N(C)CCNC)c1C#N (stereo not drawn) [Example 470, 2-((3,5-dicyano-4-ethyl-6-(methyl(2-(methylamino)ethyl)amino)pyridin-2-yl)thio)-2-phenylacetamide]
D (Category D: ≥6.5) | < 316 nM |  |  | CCc1c(C#N)c(SC(C(N)=O)c2ccccc2)nc(N(C)CCN2CCC[C@H]2CO)c1C#N (stereo partly drawn) [Example 475, 2-((3,5-dicyano-4-ethyl-6-((2-((S)-2-(hydroxymethyl)pyrrolidin-1-yl)ethyl)(methyl)amino)pyridin-2-yl)thio)-2-phenylacetamide]
D (Category D: ≥6.5) | < 316 nM |  |  | CCc1c(C#N)c(SC(C(N)=O)c2ccccc2)nc(N(C)CCN2[C@H](C)CC[C@@H]2C)c1C#N (stereo partly drawn) [Example 476, 2-(3,5-dicyano-6-((2-((2S,5R)-2,5-dimethylpyrrolidin-1-yl)ethyl)(methyl)amino)-4-ethylpyridin-2-ylthio)-2-phenylacetamide]
D (Category D: ≥6.5) | < 316 nM | > 6.5 | 100 nM | CCc1c(C#N)c(SC(C(N)=O)c2ccccc2)nc(N(C)CCN2CCCCCC2)c1C#N (stereo not drawn) [Example 477, 2-((6-((2-(azepan-1-yl)ethyl)(methyl)amino)-3,5-dicyano-4-ethylpyridin-2-yl)thio)-2-phenylacetamide]
D (Category D: ≥6.5) | < 316 nM |  |  | CCc1c(C#N)c(SC(C(N)=O)c2ccccc2)nc(N(C)CCN2CCCCC2)c1C#N (stereo not drawn) [Example 478, 2-((3,5-dicyano-4-ethyl-6-(methyl(2-(piperidin-1-yl)ethyl)amino)pyridin-2-yl)thio)-2-phenylacetamide]
D (Category D: ≥6.5) | < 316 nM |  |  | CCc1c(C#N)c(SC(C(N)=O)c2ccccc2)nc(N(C)CCN2CCC[C@@H]2CO)c1C#N (stereo partly drawn) [Example 479, 2-((3,5-dicyano-4-ethyl-6-((2-((R)-2-(hydroxymethyl)pyrrolidin-1-yl)ethyl)(methyl)amino)pyridin-2-yl)thio)-2-phenylacetamide]
D (Category D: ≥6.5) | < 316 nM |  |  | CCc1c(C#N)c(SC(C(N)=O)c2ccccc2)nc(N(C)CCN2[C@H](C)CC[C@H]2C)c1C#N (stereo partly drawn) [Example 485, 2-((3,5-dicyano-6-((2-((2R,5R)-2,5-dimethylpyrrolidin-1-yl)ethyl)(methyl)amino)-4-ethylpyridin-2-yl)thio)-2-phenylacetamide]
D (Category D: ≥6.5) | < 316 nM |  |  | CCc1c(C#N)c(SC(C(N)=O)c2ccccc2)nc(N(C)CCN2CC[C@H](O)C2)c1C#N (stereo partly drawn) [Example 486, 2-(3,5-dicyano-4-ethyl-6-((2-((S)-3-hydroxypyrrolidin-1-yl)ethyl)(methyl)amino)pyridin-2-ylthio)-2-phenylacetamide]
